Consider 10 compounds from US12054478B2, “Compositions and methods for inhibiting phenyl triazole MLL1-WDR5 protein-protein interaction” (China Pharmaceutical University, priority 2018, dated 2024).

One data set has as its system female balb/c mice. Particulars: 80 mg/kg intraperitoneal, 10 consecutive days. As for the experimental part:
In the meantime, subacute toxicity experiments were conducted to evaluate the safety of some of the compounds in the present disclosure in mouse.

Data set [1] concerns K562 human chronic myeloid leukemia cells. The data set is described as follows: Anti-proliferation on leukemia cells, K562. The class given is cell-based. The protocol: Anti-proliferation experiments were conducted with leukemia cells with some of the compounds in the present disclosure. Table 3 listed the results of evaluation of the anti-proliferation activities for some of the compounds from this present disclosure conducted with acute leukemia cells, wherein MV4-11 is human acute leukemia monocyte, Molm-13 is human acute myeloid leukemia cells, and K562 is human chronic myeloid leukemia cells.

Data set [2] has as its system MV4-11 human acute leukemia monocyte. The data set can be described thus: Anti-proliferation on leukemia cells, MV4-11. The class given is cell-based. The note with it: MV-411 cells. The protocol:
(§1) Anti-proliferation experiments were conducted with leukemia cells with some of the compounds in the present disclosure.

In data set [3] the target is MLL1-WDR5 protein-protein interactions (Homo sapiens, UniProt P61964). The data set can be described thus: Inhibition of MLL1-WDR5 protein-protein interaction. The class given is binding. The note with it: Table 1; read-out: MLL1-WDR5 PPI inhibition activity.
Data set [4] has as its system H3K4 acetylation level (MLL1 catalytic activity in cells). The data set can be described thus: Western-blot at cellular level, H3K4 acetylation (H3K4me1/2/3) levels. The class given is cell-based. Particulars: Yes/No. The protocol:
In addition, Western-blot experiments at cellular level were conducted with some of the compounds in the present disclosure, with results listed in Table 1 on whether some of the compounds in the present disclosure inhibited H3K4 acetylation levels.
The inhibition on MLL1 catalytic activities at the cellular level for some of the compounds was plotted in FIG. 2.

The subject of data set [5] is Hox and Meis-1 gene expression. The data set can be described thus: RT-PCR at cellular level, Hox and Meis-1 gene expression. The class given is cell-based. Particulars: Yes/No.
Data set [6] has as its system Molm-13 human acute myeloid leukemia cells. The data set is described as follows: Anti-proliferation on leukemia cells, Molm-13. The class given is cell-based. Particulars: Molm-13 cells. As for the experimental part:
as §1

As usually defined, the GI50 is the concentration that inhibits growth by half. Lower therefore signals greater sensitivity of the cells. Take `Cc1c(F)c(N)cc(C(=O)Nc2cc(-n3cc(NC(=O)CCCN)nn3)ccc2N2CCN(C)CC2)c1Cl` [Example 16, 5-amino-N-(5-(4-(4-Aminobutyrylamino)-1H-1,2,3-triazol-1-group)-2-(4-methylpiperazin-1-group)phenyl)-2-chloro-4-fluoro-3-methyl benzoylamino]: the “Average body weight changes” value in the data set with female balb/c mice is “slight body weight increase”. Moreover, the GI50 was found to be 15 ± 0.8 µM in data set [1] and 15.1 ± 0.9 µM in data set [2] (Homo sapiens, MV4-11). In data set [3], the IC50 was under 0.01 µM.

`COC(=O)c1cn(-c2ccc(N3CCN(C)CC3)c(NC(=O)c3cc(N)c(F)c(C)c3Cl)c2)nn1` [Example 1, 1-(3-(5-amino-2-chloro-4-fluoro-3-methylbenzoylamino)-4-(4-methylpiperazine-1-group)phenyl)-1H-1,2,3-methyl triazole-4-carboxylate]: the “Inhibition on H3K4 acetylation level” value in data set [4] is listed as “Yes”. In addition, in data set [5], the “Downregulation of Hox and Meis-1 expression” value (“Downregulation” below) is “Yes”.

For the compound `Cc1c(F)c(N)cc(C(=O)Nc2cc(-n3cc(C(=O)NC4CCN(C)CC4)nn3)ccc2N2CCN(C)CC2)c1Cl` [Example 6, 1-(3-(5-Amino-2-chloro-4-fluoro-3-methylbenzoylamino)-4-(4-methylpiperazin-1-group)phenyl)-N-(1-methylpiperidin-4-group)-1H-1,2,3-triazole-4-carboxamide], the “Average body weight changes” value with female balb/c mice was “slight body weight increase”. In addition, the GI50 in data set [1] was determined as 10.4 ± 0.7 µM.

In the case of `Cc1c(F)c(N)cc(C(=O)Nc2cc(-n3cc(C(=O)NCCCN4CCOCC4)nn3)ccc2N2CCN(C)CC2)c1Cl` [Example 7], in the data set on female balb/c mice, the “Average body weight changes” value is listed as “slight body weight increase”. In data set [1], this compound showed a 50% growth inhibitory concentration (GI50) of 12.9 ± 0.4 µM.

As to `Cc1c(F)c(N)cc(C(=O)Nc2cc(-c3ccc(N)cc3)ccc2N2CCN(C)CC2)c1Cl` [DDO-2084, reference compound], the “Inhibition on H3K4 acetylation level” value in data set [4] was “Yes”. The GI50 in data set [1] is 50.5 ± 5.5 µM; in data set [2] (Homo sapiens, MV4-11), 17.7 ± 2.3 µM. The “Downregulation” value in data set [5] was “Yes”. Also, in data set [3], the IC50 is 0.0887 ± 0.0049 µM.

Take `Cc1c(F)c(N)cc(C(=O)Nc2cc(-c3ccc(NC(=O)CCCN)cc3)ccc2N2CCN(C)CC2)c1Cl` [DDO-2117, reference compound]: in the data set with female balb/c mice, the “Average body weight changes” value was “apparent body weight decrease”.

For `Cc1c(F)c(N)cc(C(=O)Nc2cc(-c3ccc(NC(=O)C(N)C(C)C)cc3)ccc2N2CCN(C)CC2)c1Cl` (stereo not shown) [DDO-2113, reference compound], the Mouse survival result with female balb/c mice is reported as “all mice died after dosing for 5 days”.

For `Cc1c(F)c(N)cc(C(=O)Nc2c(N3CCN(C)CC3)ccc(-n3cc(C(=O)NCCN4CCOCC4)nn3)c2C)c1Cl` [Example 22, 1-(3-(5-amino-2-chloro-4-fluoro-3-Methylbenzoylamino)-2-methyl-4-(4-methylpiperazin-1-group)phenyl)-N-(2-Morpholineethyl)-1H-1,2,3-triazol-4-formamide], the “Average body weight changes” value with female balb/c mice is “slight body weight increase”. In addition, the GI50 in data set [6] (Homo sapiens) is 11.2 ± 0.8 µM; in data set [1], 10.9 ± 0.7 µM; in data set [2] (Homo sapiens, MV4-11), 9.5 ± 0.4 µM. In addition, the IC50 in data set [3] is under 0.01 µM.

As for “5-amino-2-chloro-N-(5-(4-(4-(dimethylaminomethyl)benzyl)-1H-1,2,3-triazol-1-group)-2-(4-methylpiperazin-1-group group)phenyl)-4-fluoro-3-Methyl benzoyl [Example 18]”, in data set [4], the “Inhibition on H3K4 acetylation level” value is on record as “Yes”. Besides, the 50% growth inhibitory concentration (GI50) was 15.4 ± 2.2 µM in data set [6] and 11.2 ± 1.3 µM in data set [2]. Moreover, the “Downregulation” value in data set [5] is listed as “Yes”. Moreover, the IC50 in data set [3] is under 0.05 µM.

As to `Cc1c(F)c(N)cc(C(=O)Nc2cc(-n3cc(C(=O)N4CCOCC4)nn3)ccc2N2CCN(C)CC2)c1Cl` [Example 4], the “Average body weight changes” value in the data set with female balb/c mice is on record as “slight body weight increase”. In addition, in data set [4], the “Inhibition on H3K4 acetylation level” value is on record as “Yes”. In data set [1], the GI50 stood at 34.4 ± 0.9 µM. Besides, the “Downregulation” value in data set [5] was “Yes”.
